Reference: patent US7445765B2, “Radiopharmaceutical for diagnostic imaging containing a technetium-99m nitride heterocomplex” (Nihon Medi-Physics Co., Ltd., priority 2000, dated 2008)

What was measured:
[1] = Biodistribution of the 99mTc(N) heterocomplexes in rats (organ uptake, heart accumulation, heart/lung and heart/liver ratios); assay type: in vivo, female Sprague-Dawley rats
Outline: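 Female Sprague-Dawley rats (200–250 g, n=3), ketamine/xylazine anaesthesia, got 300–370 kBq of each purified heterocomplex in pH 7.4 phosphate buffer (10% ethanol) via the jugular vein. They were killed at several post-injection times. Heart blood and washed, weighed organs were gamma-counted, taking whole blood as 6.5% of body weight.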

[2] = Stability: ligand exchange reaction with cysteine or glutathione; assay type: physicochemical; conditions: phosphate buffer pH 7.4, 37° C., up to 2 hours, TLC
Method: The stability of the ^99mTc(N) heterocomplexes obtained using PNP3 as a bisphosphinoamine compound in Example 1 was confirmed by ligand exchange reaction with cysteine or glutathione.
250.0 μL of phosphate buffer solution (0.20 M, pH=7.4), 100 μL of water and 100 μL of each of the ^99mTc(N) heterocomplexes purified were mixed with 50 μL of each of cysteine solutions having different concentrations of 10 mM and 1.0 mM, and the resulting mixture was placed in a polypropylene test tube and incubated in a thermostat at 37° C. A blank solution was obtained by mixing an equal volume of water without addition of cysteine. Aliquots of the resulting solutions were withdrawn at 15 min, 30 min, 60 min and 2 hours after the start of the incubation, and analyzed by TLC. The same experiment as above was carried out except for using glutathione in place of cysteine. All the ^99mTc(N) heterocomplex samples were found stable against transchelation by cystein or glutathione.

[3] = Measurement of Log k′ (partition ratio) by HPLC, PNP3 heterocomplexes; assay type: physicochemical; conditions: HPLC C18, methanol/phosphate buffer (0.02M, pH 7.4), 1.0 mL/min; extrapolated to 0% organic solvent
Method: For the various ^99mTc(N) heterocomplexes synthesized using PNP3 as a bisphosphinoamine compound in Example 1, Log k′ values were determined at various compositions of a mobile phase for HPLC. As the mobile phase, mixtures of methanol and phosphate buffer (0.02M, pH=7.4) were used at a flow rate of 1.0 mL/min. For each sample, the retention time was measured at a minimum of three different methanol concentrations in the mobile phase. The Log k′ values at 0% organic solvent (Log k′0) were extrapolated from the linear part of the curve Log k′=a+bC, where C is the methanol concentration, and Log k′ is Log (tR-to)/to wherein tR is HPLC retension time (min). The column void time (t0) was regarded as being equal to the elution time of pertechnetic acid.

CCOCCN(CCOCC)C1=[S][99Tc+]2(#[N])([S]1)[P](CCCOC)(CCCOC)CCN(CCOC)CC[P]2(CCCOC)CCCOC [[^99mTc(N) (PNP3) (DBODC)]^+]
Biodistribution in rats: Adrenal glands ([1]; 0 min post injection): 2.68 ± 0.44 % ID/g
Biodistribution in rats: Blood ([1]; 0 min post injection): 0.55 ± 0.32 % ID/g
Biodistribution in rats: Brain ([1]; 0 min post injection): 0.23 ± 0.04 % ID/g
Biodistribution in rats: Heart ([1]; 0 min post injection): 3.57 ± 0.14 % ID/g
Biodistribution in rats: Intestine ([1]; 0 min post injection): 2.43 ± 0.49 % ID/g
Biodistribution in rats: Kidneys ([1]; 0 min post injection): 10.40 ± 2.16 % ID/g
Biodistribution in rats: Liver ([1]; 0 min post injection): 1.46 ± 0.05 % ID/g
Biodistribution in rats: Lungs ([1]; 0 min post injection): 1.54 ± 0.03 % ID/g
Biodistribution in rats: Muscle ([1]; 0 min post injection): 0.23 ± 0.04 % ID/g
Biodistribution in rats: Spleen ([1]; 0 min post injection): 1.84 ± 0.49 % ID/g
Biodistribution in rats: Submaxillary glands ([1]; 0 min post injection): 1.25 ± 0.47 % ID/g
Biodistribution in rats: Adrenal glands ([1]; 2 min post injection): 2.87 ± 1.00 % ID/g
Biodistribution in rats: Blood ([1]; 2 min post injection): 0.11 ± 0.01 % ID/g
Biodistribution in rats: Brain ([1]; 2 min post injection): 0.03 ± 0.00 % ID/g
Biodistribution in rats: Heart ([1]; 2 min post injection): 3.42 ± 0.19 % ID/g
Biodistribution in rats: Intestine ([1]; 2 min post injection): 7.42 ± 1.03 % ID/g
Biodistribution in rats: Kidneys ([1]; 2 min post injection): 11.57 ± 2.37 % ID/g
Biodistribution in rats: Liver ([1]; 2 min post injection): 1.72 ± 0.26 % ID/g
Biodistribution in rats: Lungs ([1]; 2 min post injection): 1.01 ± 0.49 % ID/g
Biodistribution in rats: Muscle ([1]; 2 min post injection): 0.23 ± 0.01 % ID/g
Biodistribution in rats: Spleen ([1]; 2 min post injection): 2.00 ± 0.07 % ID/g
Biodistribution in rats: Submaxillary glands ([1]; 2 min post injection): 1.27 ± 0.05 % ID/g
Biodistribution in rats: Adrenal glands ([1]; 10 min post injection): 2.30 ± 0.73 % ID/g
Biodistribution in rats: Blood ([1]; 10 min post injection): 0.03 ± 0.00 % ID/g
Biodistribution in rats: Brain ([1]; 10 min post injection): 0.02 ± 0.00 % ID/g
Biodistribution in rats: Heart ([1]; 10 min post injection): 3.65 ± 0.56 % ID/g
Biodistribution in rats: Intestine ([1]; 10 min post injection): 12.11 ± 2.92 % ID/g
Biodistribution in rats: Kidneys ([1]; 10 min post injection): 6.74 ± 0.63 % ID/g
Biodistribution in rats: Liver ([1]; 10 min post injection): 1.43 ± 0.47 % ID/g
Biodistribution in rats: Lungs ([1]; 10 min post injection): 0.77 ± 0.10 % ID/g
Biodistribution in rats: Muscle ([1]; 10 min post injection): 0.23 ± 0.07 % ID/g
Biodistribution in rats: Spleen ([1]; 10 min post injection): 1.28 ± 0.12 % ID/g
Biodistribution in rats: Submaxillary glands ([1]; 10 min post injection): 1.42 ± 0.24 % ID/g
Biodistribution in rats: Adrenal glands ([1]; 20 min post injection): 2.69 ± 0.37 % ID/g
Biodistribution in rats: Blood ([1]; 20 min post injection): 0.02 ± 0.01 % ID/g
Biodistribution in rats: Brain ([1]; 20 min post injection): 0.02 ± 0.01 % ID/g
Biodistribution in rats: Heart ([1]; 20 min post injection): 3.32 ± 0.18 % ID/g
Biodistribution in rats: Intestine ([1]; 20 min post injection): 13.03 ± 3.19 % ID/g
Biodistribution in rats: Kidneys ([1]; 20 min post injection): 6.12 ± 0.11 % ID/g
Biodistribution in rats: Liver ([1]; 20 min post injection): 0.87 ± 0.52 % ID/g
Biodistribution in rats: Lungs ([1]; 20 min post injection): 0.84 ± 0.06 % ID/g
Biodistribution in rats: Muscle ([1]; 20 min post injection): 0.13 ± 0.02 % ID/g
Biodistribution in rats: Spleen ([1]; 20 min post injection): 0.92 ± 0.10 % ID/g
Biodistribution in rats: Submaxillary glands ([1]; 20 min post injection): 1.32 ± 0.21 % ID/g
Biodistribution in rats: Adrenal glands ([1]; 30 min post injection): 2.94 ± 0.18 % ID/g
Biodistribution in rats: Blood ([1]; 30 min post injection): 0.02 ± 0.00 % ID/g
Biodistribution in rats: Brain ([1]; 30 min post injection): 0.02 ± 0.02 % ID/g
Biodistribution in rats: Heart ([1]; 30 min post injection): 3.27 ± 0.36 % ID/g
Biodistribution in rats: Intestine ([1]; 30 min post injection): 13.41 ± 4.62 % ID/g
Biodistribution in rats: Kidneys ([1]; 30 min post injection): 5.67 ± 0.39 % ID/g
Biodistribution in rats: Liver ([1]; 30 min post injection): 0.42 ± 0.01 % ID/g
Biodistribution in rats: Lungs ([1]; 30 min post injection): 0.69 ± 0.12 % ID/g
Biodistribution in rats: Muscle ([1]; 30 min post injection): 0.24 ± 0.08 % ID/g
Biodistribution in rats: Spleen ([1]; 30 min post injection): 0.95 ± 0.02 % ID/g
Biodistribution in rats: Submaxillary glands ([1]; 30 min post injection): 1.49 ± 0.22 % ID/g
Biodistribution in rats: Adrenal glands ([1]; 60 min post injection): 2.17 ± 0.35 % ID/g
Biodistribution in rats: Blood ([1]; 60 min post injection): 0.01 ± 0.00 % ID/g
Biodistribution in rats: Brain ([1]; 60 min post injection): 0.01 ± 0.00 % ID/g
Biodistribution in rats: Heart ([1]; 60 min post injection): 3.27 ± 0.62 % ID/g
Biodistribution in rats: Intestine ([1]; 60 min post injection): 4.39 ± 2.86 % ID/g
Biodistribution in rats: Kidneys ([1]; 60 min post injection): 4.24 ± 0.53 % ID/g
Biodistribution in rats: Liver ([1]; 60 min post injection): 0.16 ± 0.05 % ID/g
Biodistribution in rats: Lungs ([1]; 60 min post injection): 0.34 ± 0.11 % ID/g
Biodistribution in rats: Muscle ([1]; 60 min post injection): 0.17 ± 0.01 % ID/g
Biodistribution in rats: Spleen ([1]; 60 min post injection): 0.42 ± 0.11 % ID/g
Biodistribution in rats: Submaxillary glands ([1]; 60 min post injection): 1.29 ± 0.28 % ID/g
Biodistribution in rats: Adrenal glands ([1]; 120 min post injection): 2.53 ± 0.27 % ID/g
Biodistribution in rats: Blood ([1]; 120 min post injection): 0.01 ± 0.00 % ID/g
Biodistribution in rats: Brain ([1]; 120 min post injection): 0.01 ± 0.00 % ID/g
Biodistribution in rats: Heart ([1]; 120 min post injection): 3.00 ± 0.42 % ID/g
Biodistribution in rats: Intestine ([1]; 120 min post injection): 7.03 ± 2.61 % ID/g
Biodistribution in rats: Kidneys ([1]; 120 min post injection): 3.48 ± 0.61 % ID/g
Biodistribution in rats: Liver ([1]; 120 min post injection): 0.12 ± 0.03 % ID/g
Biodistribution in rats: Lungs ([1]; 120 min post injection): 0.27 ± 0.05 % ID/g
Biodistribution in rats: Muscle ([1]; 120 min post injection): 0.36 ± 0.15 % ID/g
Biodistribution in rats: Spleen ([1]; 120 min post injection): 0.21 ± 0.03 % ID/g
Biodistribution in rats: Submaxillary glands ([1]; 120 min post injection): 1.59 ± 0.19 % ID/g
Stability [2]: Stable
Log k′ (partition ratio) [3]: 3.82
